Source: US7678787B2, “Pyrrolobenzodiazepine pyridine carboxamides and derivatives as follicle-stimulating hormone receptor antagonists” (Wyeth, priority 2005, dated 2010)
Read-outs that look alike come from different tables or passages of the source.

What was measured:
[1] = biological target: T1, human FSH receptor (Homo sapiens, UniProt P23945); experiment: FSH receptor-dependent CRE-luciferase reporter gene assay (CHO FSH-R 6CRE-Luc cells); assay type: cell-based
T1 construct: host or cells: CHO-K1 (CHO FSH-R 6CRE-Luc, 1D7 cells)
T1 sequence (P23945 18-695): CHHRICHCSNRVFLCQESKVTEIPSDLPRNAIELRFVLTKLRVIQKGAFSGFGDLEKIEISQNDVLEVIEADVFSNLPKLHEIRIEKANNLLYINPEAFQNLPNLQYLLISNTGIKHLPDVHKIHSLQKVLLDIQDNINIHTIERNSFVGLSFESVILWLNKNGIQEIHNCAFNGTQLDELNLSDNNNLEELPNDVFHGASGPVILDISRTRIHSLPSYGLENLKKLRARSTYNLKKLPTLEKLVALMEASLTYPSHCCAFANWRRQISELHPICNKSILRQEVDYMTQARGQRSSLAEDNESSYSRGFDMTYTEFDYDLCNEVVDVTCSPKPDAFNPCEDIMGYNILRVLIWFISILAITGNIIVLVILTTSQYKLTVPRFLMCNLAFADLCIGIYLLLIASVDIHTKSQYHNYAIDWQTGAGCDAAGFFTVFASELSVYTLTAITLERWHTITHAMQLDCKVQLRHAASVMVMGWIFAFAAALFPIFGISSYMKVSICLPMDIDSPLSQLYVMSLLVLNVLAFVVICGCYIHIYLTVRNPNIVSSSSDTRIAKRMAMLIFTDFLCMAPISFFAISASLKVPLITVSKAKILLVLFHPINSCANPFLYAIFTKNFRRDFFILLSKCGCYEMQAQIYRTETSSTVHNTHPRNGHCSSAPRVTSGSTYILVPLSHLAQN

[2] = 2-dose format, test concentration in parentheses = 30 μM, percent inhibition of response to EC50 of FSH, read-out: CRE % inhibition

| inhibition at 30 µM [1, 2] | melting point | SMILES | inhibition at 30 µM ([1]; read-out: CRE % inhibition (μM)) |
| --- | --- | --- | --- |
| 11% | – | Cc1cc(C(=O)N2Cc3ccc(C(=O)NCc4cccnc4)n3Cc3ccccc32)ccc1-c1ccc(Cl)c(Cl)c1 [Example 25] | – |
| 29% | 198 to 199 °C | O=C(c1ccccc1)c1ccccc1-c1ccc(C(=O)N2Cc3ccc(C(=O)NCc4cccnc4)n3Cc3ccccc32)cc1 [Example 60] | – |
| 17.3% | – | COc1ccccc1-c1ccc(S(=O)(=O)N2Cc3ccc(C(=O)NCc4cccnc4)n3Cc3ccccc32)cc1 [Example 71] | – |
| 6.61% | – | O=C(NCc1cccnc1)c1ccc2n1Cc1ccccc1N(S(=O)(=O)c1ccc(-c3ccccc3Cl)cc1)C2 [Example 72] | – |
| 2.4% | 157 to 158 °C | O=C(NCc1cccnc1)c1ccc2n1Cc1ccccc1N(C(=O)c1ccccc1C(F)(F)F)C2 [Example 82] | – |
| 40% | 103 to 109 °C | O=C(NCc1cccnc1)c1ccc2n1Cc1ccccc1N(C(=O)c1c(F)cccc1F)C2 [Example 86] | – |
| 38% | 170 to 172 °C | COC(=O)c1ccc(C(=O)N2Cc3ccc(C(=O)NCc4cccnc4)n3Cc3ccccc32)cc1 [Example 87, METHYL 4-{[3-{[(PYRIDIN-3-YLMETHYL)AMINO]CARBONYL}-5H-PYRROLO[2,1-C][1,4]BENZODIAZEPIN-10(11H)-YL]CARBONYL}BENZOATE] | – |
| 13% | – | N#Cc1ccc(C(=O)N2Cc3ccc(C(=O)NCc4cccnc4)n3Cc3ccccc32)cc1 [Example 90] | – |
| 37% | – | O=C(NCc1cccnc1)c1ccc2n1Cc1ccccc1N(C(=O)c1ccc(Cl)cc1)C2 [Example 91] | – |
| 17% | – | Cc1ccccc1C(=O)N1Cc2ccc(C(=O)NCc3cccnc3)n2Cc2ccccc21 [Example 94] | – |
| 35% | – | O=C(NCc1cccnc1)c1ccc2n1Cc1ccccc1N(C(=O)c1ccc([N+](=O)[O-])cc1)C2 [Example 99] | – |
| 34% | – | O=C(NCc1cccnc1)c1ccc2n1Cc1ccccc1N(C(=O)c1cccs1)C2 [Example 115] | – |
| 24% | – | O=C(NCc1cccnc1)c1ccc2n1Cc1ccccc1N(C(=O)c1ccc(Cl)nc1)C2 [Example 117] | – |
| 41% | – | O=C(NCc1cccnc1)c1ccc2n1Cc1ccccc1N(C(=O)c1cnccn1)C2 [Example 123] | – |
| 7% | – | O=C(NCc1cccnc1)c1ccc2n1Cc1ccccc1N(C(=O)c1cccnc1)C2 [Example 124] | – |
| – | – | O=C(NCc1cccnc1)c1ccc2n1Cc1ccccc1N(C(=O)c1ccc(N3CCCCC3)nc1)C2 [Example 125] | 31% |
| 9% | – | O=C(NCc1cccnc1)c1ccc2n1Cc1ccccc1N(C(=O)c1ccc(NCCCc3ccccc3)nc1)C2 [Example 127] | – |
| 16% | – | COc1cccc(CNc2ccc(C(=O)N3Cc4ccc(C(=O)NCc5cccnc5)n4Cc4ccccc43)cn2)c1 [Example 129] | – |
| 26% | – | CN(Cc1ccccc1)c1ccc(C(=O)N2Cc3ccc(C(=O)NCc4cccnc4)n3Cc3ccccc32)cn1 [Example 130] | – |
| 26% | – | O=C(NCc1cccnc1)c1ccc2n1Cc1ccccc1N(C(=O)c1ccc(NCCO)nc1)C2 [Example 132] | – |
| 4% | – | O=C(NCc1cccnc1)c1ccc2n1Cc1ccccc1N(C(=O)c1ccc(OCc3ccccc3)nc1)C2 [Example 134] | – |
| 41% | – | O=C(NCc1cccnc1)c1ccc2n1Cc1ccccc1N(C(=O)COc1ccccc1)C2 [Example 136] | – |
| 32% | – | O=C(NCc1cccnc1)c1ccc2n1Cc1ccccc1N(C(=O)CSc1ccc(Br)cc1)C2 [Example 141] | – |
| 8% | – | O=C(NCc1cccnc1)c1ccc2n1Cc1ccccc1N(C(=O)C1CCCCC1)C2 [Example 149, 10-(CYCLOHEXYLCARBONYL)-N-(PYRIDIN-3-YLMETHYL)-10,11-DIHYDRO-5H-PYRROLO[2,1-C][1,4] BENZODIAZEPINE-3-CARBOXAMIDE] | – |
| 20% | – | CC(C)C(=O)N1Cc2ccc(C(=O)NCc3cccnc3)n2Cc2ccccc21 [Example 150] | – |
